Where “and” joins values, the source holds several entries; their conditions need not be identical. Identical values can stand only once. Non-standard residues stand in square brackets, D forms with d. Residues, ends and D or L forms follow the SMILES beside them. No end group written: not given here. *: point of attachment. Benzoyl(4-benzoyl) = O=C(c1ccccc1)c1ccc(C(=O)*)cc1; Bpa = N[C@@H](Cc1ccc(C(=O)c2ccccc2)cc1)C(=O)O
Columns and labels:
rCRFBP [1] = biological target: T1, rCRFBP (Rattus norvegicus, UniProt P24388); experiment: Radioligand binding assay (charcoal precipitation, 3H-rUcn) for affinity to rCRFBP; details: for Ki: mean ± S.E.M. of three independent experiments in duplicate, 3H-rUcn radioligand, Cheng-Prusoff, read-out: Inhibition constants (Kl)
T1 construct: made in house; host or cells: HEK 293 cells, stably transfected (pcDNA3); serum-free conditioned medium used directly
T1 sequence (P24388 25-322): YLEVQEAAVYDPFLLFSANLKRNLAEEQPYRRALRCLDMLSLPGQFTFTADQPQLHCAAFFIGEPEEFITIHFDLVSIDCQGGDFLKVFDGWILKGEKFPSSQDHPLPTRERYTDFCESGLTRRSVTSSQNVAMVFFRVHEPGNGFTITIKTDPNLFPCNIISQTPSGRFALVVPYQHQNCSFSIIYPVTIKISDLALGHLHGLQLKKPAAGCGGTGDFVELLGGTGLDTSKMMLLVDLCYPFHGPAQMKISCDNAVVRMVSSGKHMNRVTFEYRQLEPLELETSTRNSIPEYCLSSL
Protocol: The peptides were tested for their affinity to rCRFBP on the basis of a charcoal precipitation assay utilizing tritiated Ucn as radioligand (21). […] Siliconized microreaction vials (Sigma, Deisenhofen, Germany) were used to prevent binding of peptides to plastic surfaces. Competition binding experiments were performed by employing 0 to maximally 3 μM unlabeled competitor. The applied concentration range depended on the expected order of magnitude of ligand affinity. After 2 hours of incubation at room temperature, unbound ligand was precipitated by the addition of 100 μl precipitation buffer (binding buffer+10% w/v activated charcoal+2% BSA). The suspension was mixed vigorously and the adsorption was allowed to proceed for 2 min at room temperature. After centrifugation for 2 min at 12000×g, 200 μl supernatant was removed, mixed with 2 ml Ecolume liquid scintillation cocktail (ICN Biomedicals, Irvine, Calif.), and counted for 3 min in a Wallac 1209 Rackbeta liquid scintillation counter (Wallac, Turku, Finland). All assays were performed in duplicate and repeated at least three times. Binding data were analyzed using the Prism computer program (GraphPad Software, San Diego, Calif.).

rCRFBP [2] = biological target: T1, rCRFBP; experiment: Photoaffinity labeling of rCRFBP (photoadduct formation); format: biochemical; details: for Photoadduct yield determined by immunoblotting: comparison of photoprobes (FIG. 6)
Protocol: 1 nM CRFBP was incubated with a 100 fold molar excess of photoactivatable ligand for 1 hour at room temperature. […] The irradiation was carried out with UV-light of wavelenghts greater than 300 nm in an ice bath.
rCRFBP (approximate final concentration 10 nM) was incubated with 100 nM of the photoactivatable peptide according to the conditions of the radioligand binding assay. Medium from stably transfected HEK 293 cells was directly used as source for rCRFBP. Irradiation of the benzophenone photoprobes was carried out at 0° C. with a self-constructed photoreaction device incorporating a 400 W halogen metal vapor lamp (Ultratech, Osram, Germany). This lamp provides a wide spectrum of emission at wavelenghts above 250 nm with a maximum at 370 nm which is consistent with the activation wavelenght (350-360 nm) for benzophenone derivatives (13). Protein-damaging wavelenghts below 300 nm were avoided by the use of a filter screen consisting of the optical glass type B 270 (Schoft, Mainz, Germany). The aryldiazirine photoprobe was irradiated as described (14) using a commercially available stratalinker device.
Unless otherwise stated, activation was carried out for 30 min at 0° C. with an Ultratech 400 W halogen metal vapor lamp (Osram). Protein-damaging wavelenghts below 300 nm were filtered with a B270 glass screen (Schott). Unlabeled rCRFBP and the photoadduct were co-purified by adsorption to a nickel-chelate matrix under denaturing conditions. The eluted fraction was analyzed by SDS PAGE (45) (9% polyacrylamide gels) and by reversed-phase HPLC coupled on-line to mass spectrometry (HPLC-MS) on a Vydac C4 column (0.3×150 mm; LC Packings).

rCRFBP [3] = biological target: T1, rCRFBP; experiment: Scintillation proximity assay with [125I-Tyr0]h/rCRF as radioligand, binding to rCRFBP; details: for IC50: Example 8, 95% CI given alongside, read-out: IC50 (affinity to rCRFBP)
Excerpt: Recombinant rCRFBP containing a C-terminal His-tag was produced in human embryonic kidney (HEK) 293 cells under serum-free conditions (45).

CRFBP = biological target: T2, CRFBP (Rattus norvegicus, UniProt P24388); details: relative to Svg; cited from earlier work
T2 sequence (P24388 25-322): T1 sequence (P24388 25-322)

[4] = photoprobes 100 nM, competitor 1 μM (FIG. 12a)
[5] = photoprobe pBB-rUcn, competitor in ten-fold excess (FIG. 5)

## CC[C@H](C)[C@H](NC(=O)[C@H](CO)NC(=O)[C@H](CC(C)C)NC(=O)[C@@H]1CCCN1C(=O)[C@@H]1CCCN1C(=O)[C@H](CC(=O)O)NC(=O)[C@H](CC(=O)O)NC(=O)c1ccc(C(=O)c2ccccc2)cc1)C(=O)N[C@@H](CC(=O)O)C(=O)N[C@@H](CC(C)C)C(=O)N[C@H](C(=O)N[C@@H](Cc1ccccc1)C(=O)N[C@@H](Cc1c[nH]cn1)C(=O)N[C@@H](CC(C)C)C(=O)N[C@@H](CC(C)C)C(=O)N[C@@H](CCCNC(=N)N)C(=O)N[C@H](C(=O)N[C@@H](CC(C)C)C(=O)N[C@@H](CC(C)C)C(=O)N[C@@H](CCC(=O)O)C(=O)N[C@@H](CC(C)C)C(=O)N[C@@H](C)C(=O)N[C@@H](CCCNC(=N)N)C(=O)N[C@H](C(=O)N[C@@H](CCC(N)=O)C(=O)N[C@@H](CO)C(=O)N[C@@H](CCC(N)=O)C(=O)N[C@@H](CCCNC(=N)N)C(=O)N[C@@H](CCC(=O)O)C(=O)N[C@@H](CCCNC(=N)N)C(=O)N[C@@H](C)C(=O)N[C@@H](CCC(=O)O)C(=O)N[C@@H](CCC(N)=O)C(=O)N[C@@H](CC(N)=O)C(=O)N[C@@H](CCCNC(=N)N)C(=O)N[C@H](C(=O)N[C@H](C(=O)N[C@@H](Cc1ccccc1)C(=O)N[C@@H](CC(=O)O)C(=O)N[C@@H](CO)C(=O)N[C@H](C(N)=O)C(C)C)[C@@H](C)CC)[C@@H](C)CC)[C@@H](C)O)[C@@H](C)O)[C@@H](C)O [Compound 2, pBB-rUcn]
rCRFBP [1]
  Ki: < 1 nM and 0.99 nM
rCRFBP [2]; HPLC of affinity purified photoreaction products (FIG. 8)
  Photoadduct yield by integration of the UV trace: 60%
rCRFBP [2]; Western blot densitometry, 30 min irradiation with B 270 filter screen (FIG. 4C)
  Maximal photoadduct yield: up to 50%
rCRFBP [2]
  Photoadduct yield determined by immunoblotting: 50%
rCRFBP [2]; preparative scale, nickel-affinity purified (FIG. 7)
  Photoadduct yield by SDS PAGE silver staining: 50%

## CC[C@H](C)[C@H](NC(=O)[C@H](CO)NC(=O)[C@H](CC(C)C)NC(=O)[C@@H]1CCCN1C(=O)[C@@H]1CCCN1C(=O)[C@H](CC(=O)O)NC(=O)[C@@H](N)CC(=O)O)C(=O)N[C@@H](CC(=O)O)C(=O)N[C@@H](CC(C)C)C(=O)N[C@H](C(=O)N[C@@H](Cc1ccc(C(=O)c2ccccc2)cc1)C(=O)N[C@@H](Cc1c[nH]cn1)C(=O)N[C@@H](CC(C)C)C(=O)N[C@@H](CC(C)C)C(=O)N[C@@H](CCCNC(=N)N)C(=O)N[C@H](C(=O)N[C@@H](CC(C)C)C(=O)N[C@@H](CC(C)C)C(=O)N[C@@H](CCC(=O)O)C(=O)N[C@@H](CC(C)C)C(=O)N[C@@H](C)C(=O)N[C@@H](CCCNC(=N)N)C(=O)N[C@H](C(=O)N[C@@H](CCC(N)=O)C(=O)N[C@@H](CO)C(=O)N[C@@H](CCC(N)=O)C(=O)N[C@@H](CCCNC(=N)N)C(=O)N[C@@H](CCC(=O)O)C(=O)N[C@@H](CCCNC(=N)N)C(=O)N[C@@H](C)C(=O)N[C@@H](CCC(=O)O)C(=O)N[C@@H](CCC(N)=O)C(=O)N[C@@H](CC(N)=O)C(=O)N[C@@H](CCCNC(=N)N)C(=O)N[C@H](C(=O)N[C@H](C(=O)N[C@@H](Cc1ccccc1)C(=O)N[C@@H](CC(=O)O)C(=O)N[C@@H](CO)C(=O)N[C@H](C(N)=O)C(C)C)[C@@H](C)CC)[C@@H](C)CC)[C@@H](C)O)[C@@H](C)O)[C@@H](C)O [Compound 6, pBF^11-rUcn] (H-DDPPLSIDLT[Bpa]HLLRTLLELARTQSQRERAEQNRIIFDSV-NH2; N-terminus assumed)
rCRFBP [1]
  Ki: 400 ± 35 nM
rCRFBP [1]; modification within the central part of the peptide
  Decrease of affinity to CRFBP relative to unmodified rUcn: three orders of magnitude

## CC[C@H](C)[C@H](NC(=O)[C@H](CO)NC(=O)[C@H](CC(C)C)NC(=O)c1ccc(C(=O)c2ccccc2)cc1)C(=O)N[C@@H](CC(=O)O)C(=O)N[C@@H](CC(C)C)C(=O)N[C@H](C(=O)N[C@@H](Cc1ccccc1)C(=O)N[C@@H](Cc1c[nH]cn1)C(=O)N[C@@H](CC(C)C)C(=O)N[C@@H](CC(C)C)C(=O)N[C@@H](CCCNC(=N)N)C(=O)N[C@H](C(=O)N[C@@H](CC(C)C)C(=O)N[C@@H](CC(C)C)C(=O)N[C@@H](CCC(=O)O)C(=O)N[C@@H](CC(C)C)C(=O)N[C@@H](C)C(=O)N[C@@H](CCCNC(=N)N)C(=O)N[C@H](C(=O)N[C@@H](CCC(N)=O)C(=O)N[C@@H](CO)C(=O)N[C@@H](CCC(N)=O)C(=O)N[C@@H](CCCNC(=N)N)C(=O)N[C@@H](CCC(=O)O)C(=O)N[C@@H](CCCNC(=N)N)C(=O)N[C@@H](C)C(=O)N[C@@H](CCC(=O)O)C(=O)N[C@@H](CCC(N)=O)C(=O)O)[C@@H](C)O)[C@@H](C)O)[C@@H](C)O [Compound 8, pBB-rUcn^5-32] ({Benzoyl(4-benzoyl)}-LSIDLTFHLLRTLLELARTQSQRERAEQ-OH)
rCRFBP [1]
  Ki: 37 ± 3.5 nM

## CC[C@H](C)[C@H](N)C(=O)N[C@@H](CO)C(=O)N[C@@H](CC(C)C)C(=O)N[C@@H](CC(=O)O)C(=O)N[C@@H](CC(C)C)C(=O)N[C@H](C(=O)N[C@@H](Cc1ccccc1)C(=O)N[C@@H](Cc1c[nH]cn1)C(=O)N[C@@H](CC(C)C)C(=O)N[C@@H](CC(C)C)C(=O)N[C@@H](CCCNC(=N)N)C(=O)N[C@@H](CCC(=O)O)C(=O)N[C@H](C(=O)N[C@@H](CC(C)C)C(=O)N[C@@H](CCC(=O)O)C(=O)N[C@@H](CCSC)C(=O)N[C@@H](C)C(=O)N[C@@H](CCCNC(=N)N)C(=O)N[C@@H](C)C(=O)N[C@@H](CCC(=O)O)C(=O)N[C@@H](CCC(N)=O)C(=O)N[C@@H](CC(C)C)C(=O)N[C@@H](C)C(=O)N[C@@H](CCC(N)=O)C(=O)N[C@@H](CCC(N)=O)C(=O)N[C@@H](C)C(=O)N[C@@H](Cc1ccc(C(=O)c2ccccc2)cc1)C(=O)N[C@@H](CO)C(=O)O)C(C)C)[C@@H](C)O [Compound 14, [pBPhe^32]h/rCRF^6-33] (H-ISLDLTFHLLREVLEMARAEQLAQQA[Bpa]S-OH; N-terminus assumed)
rCRFBP [3]
  IC50: 2.1 nM

## CC[C@H](C)[C@H](NC(=O)c1ccc(C(=O)c2ccccc2)cc1)C(=O)N[C@@H](CO)C(=O)N[C@@H](CC(C)C)C(=O)N[C@@H](CC(=O)O)C(=O)N[C@@H](CC(C)C)C(=O)N[C@H](C(=O)N[C@@H](Cc1ccccc1)C(=O)N[C@@H](Cc1c[nH]cn1)C(=O)N[C@@H](CC(C)C)C(=O)N[C@@H](CC(C)C)C(=O)N[C@@H](CCCNC(=N)N)C(=O)N[C@@H](CCC(=O)O)C(=O)N[C@H](C(=O)N[C@@H](CC(C)C)C(=O)N[C@@H](CCC(=O)O)C(=O)N[C@@H](CCSC)C(=O)N[C@@H](C)C(=O)N[C@@H](CCCNC(=N)N)C(=O)N[C@@H](C)C(=O)N[C@@H](CCC(=O)O)C(=O)N[C@@H](CCC(N)=O)C(=O)N[C@@H](CC(C)C)C(=O)N[C@@H](C)C(=O)N[C@@H](CCC(N)=O)C(=O)N[C@@H](CCC(N)=O)C(=O)N[C@@H](C)C(=O)N[C@@H](Cc1ccc(C(=O)c2ccccc2)cc1)C(=O)N[C@@H](CO)C(=O)O)C(C)C)[C@@H](C)O [Compound 15, [pBPhe^32] pBB-h/rCRF^6-33] ({Benzoyl(4-benzoyl)}-ISLDLTFHLLREVLEMARAEQLAQQA[Bpa]S-OH)
rCRFBP [3]
  IC50: 14 nM
rCRFBP [3]; bifunctional photoprobe
  Decrease of affinity compared to h/rCRF^6-33: decreased by a factor of seven

## H-ISLDLTFHLLREVLEMARAEQLAQQAHS-OH [Compound 9, h/rCRF^6-33, reference compound]
rCRFBP [2]; [4]
  Suppression of photoadduct formation by competitor: completely suppressed

## LSIDLTFHLLRTLLELARTQSQRERAEQ-OH [Compound 7, rUcn^5-32, reference compound]
rCRFBP [1]
  Ki: 1.1 ± 0.06 nM

## [Ala^21]Svg
CRFBP
  Increase of affinity to CRFBP by replacement of Glu^21 in Svg by Ala: two orders of magnitude

## ovine CRF [oCRF, reference compound]
rCRFBP [2]; [5]
  Suppression of photoadduct formation by competitor: not
rCRFBP [2]; [4]
  Suppression of photoadduct formation by competitor: not

## pBB-h/rCRF [Compound 4]
rCRFBP [2]
  Photoadduct yield determined by immunoblotting: 50%

## pBB-h/rCRF^6-33 [Compound 10]
rCRFBP [2]; immunodetection, densitometry (FIG. 12c)
  Photoadduct yield at different time points of irradiation: ≤ 65%

## rUcn [Compound 1, reference compound]
rCRFBP [2]; [5]
  Suppression of photoadduct formation by competitor: suppressed

From patent US20040260071A1, “Benzophene-linked crf and crf-like peptides for covalent labeling of corticotropin-releasing factor crf binding protein” (priority 2001, published 2004)
